Experimental data as given in patent US20210207082A1, “SPHERICAL 3D TUMOR SPHEROID” (KOREA INSTITUTE OF SCIENCE AND TECHNOLOGY, priority 2019, published 2021).

Key:
[1] = system: FIB+MDA-MB-231 spheroid; assay: Real Time-Glo MT cell viability assay, 3D multicellular tumor spheroid; assay type: cell-based; details: Homo sapiens, 48 h; 10 μM doxorubicin for two days
[2] = system: ASC+MDA-MB-231 spheroid; assay: as above
[3] = system: ASC+MDA-MB-231 spheroid; assay: Real Time-Glo Annexin V apoptosis assay, 3D spheroid; assay type: cell-based, human; details: 10 μM doxorubicin, 48 hours
Description: (§1) Apoptotic and necrotic cells in spheroids were assayed using Real Time-Glo™ Annexin V apoptosis and necrosis assays. Real Time-Glo™ Annexin V apoptosis and necrosis assays were performed in combination with a cell viability assay. […] Thereafter, 2X apoptosis and necrosis formulations of the same volume (100 μL) were added to each well according to standard protocol proposed in manufacturer's instructions.
(§2) To investigate drug sensitivity depending on the viability against doxorubicin in the spheroids, Real Time-Glo™ Annexin V apoptosis and necrosis assays were performed. If apoptosis is induced by a drug response, a cell membrane is reversed to expose phosphatidyl-serine (PS), and an apoptotic cell can be analyzed by binding PS with Annexin V detected by a luminescence signal. A necrotic cell is detected by binding DNA with PI (green) that produces a fluorescence signal when the necrotic cell invades into a cell and a cell membrane loses integrity.

[4] = system: FIB+MDA-MB-231 spheroid; assay: as above; assay type: cell-based, human; details: 10 μM doxorubicin, 48 hours
Description: as §1, §2

[5] = system: BMSC+MDA-MB-231 spheroid; assay: as above; assay type: cell-based, human; details: 10 μM doxorubicin, 48 hours
Description: as §1, §2

[6] = system: BMSC+MDA-MB-231 spheroid; assay: Real Time-Glo MT cell viability assay, 3D multicellular tumor spheroid; assay type: cell-based; details: Homo sapiens, 48 h; 10 μM doxorubicin for two days
[7] = system: three types of 3D spheroids versus 2D monolayer; assay: 3D versus 2D comparison of cell viability; assay type: cell-based, human; details: doxorubicin
[8] = system: 3D multicellular tumor spheroids (ASC, BMSC or FIB + MDA-MB-231); assay: Necrosis (PI) assay, three types of 3D spheroids; assay type: cell-based, human; details: 10 μM doxorubicin, 48 hours
Description: as §1, §2

COc1cccc2c1C(=O)c1c(O)c3c(c(O)c1C2=O)C[C@@](O)(C(=O)CO)C[C@@H]3O[C@H]1C[C@H](N)[C@H](O)[C@H](C)O1 [doxorubicin]
viability at 10 µM [1]: 43%
cell viability ([2]; 10 μM doxorubicin for two days): 56.67%
viability, compared with other co-culture ratios ([2]; ASC:MDA-MB-231 co-culture ratio 5:5, 10 μM doxorubicin, 48 hours): highest
apoptosis (Annexin V) fold change [3]: 9 fold
apoptosis (Annexin V) fold change [4]: about 13 times
apoptosis (Annexin V) fold change [5]: 10 fold
viability at 10 µM [6]: 48.3%
drug sensitivity of 3D spheroids compared with 2D monolayer [7]: lower drug sensitivity
necrosis (PI), difference between spheroid types [8]: No significant difference
